Measurements reported in patent publication US9938279B2, “Method for treating disease or condition susceptible to amelioration by AMPK activators and compounds of formula which are useful to activate AMP-activated protein kinase (AMPK)” (ENERGENESIS BIOMEDICAL CO., LTD, priority 2013, dated 2018).

Key:
muscle cell C2C12 = assay: Glucose uptake in vitro (fluorescent glucose analog 2-NBDG); format: cell-based, mouse; details: 30 min treatment, mean±SEM of three experiments
Method: Effects of representative compounds on glucose uptake were analyzed in muscle cell C2C12 by using fluorescent glucose analog (2-NBDG, Molecular Probes). C2C12 were treated with selected novel AMPK activator for 30 min at 37° C. then exposed to 500 μM of fluorescent glucose analog. After 5 min incubation at room temperature, cells were washed three times with Kreb-Hepes buffered solution and fix in 70% alcohol. The fluorescence of glucose analog in cells was detected using a Fluorescence Microplate Reader System at 480-nm excitation and 530-nm emission wavelength.
Data are presented as the mean±SEM of three independent experiments.

AMPK [1] = assay: AMPK activation assay (western blot phospho-AMPK Thr172) in 3T3-L1; format: cell-based, mouse; details: 3T3-L1 cells, 30 min treatment
Procedure, shortened: (§1)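 Mouse C2C12, mouse 3T3-L1 and human Hep G2 cells in high-glucose DMEM/10% FBS were treated with compounds for 30 min, 24 h after plating. Lysates were western-blotted for phospho-AMPK (Thr172) and total AMPK, ECL-detected, and bands quantified by densitometry.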

AMPK [2] = assay: AMPK activation assay (western blot phospho-AMPK Thr172) in Hep G2; format: cell-based, human; details: Hep G2 cells, 30 min treatment
Procedure, shortened: as §1

AMPK [3] = assay: AMPK activation assay (western blot phospho-AMPK Thr172) in C2C12; format: cell-based, mouse; details: C2C12 cells, 30 min treatment
Procedure, shortened: as §1

| SMILES | Glucose uptake (% to control) (muscle cell C2C12; C2C12, 1 microM) | Glucose uptake (% to control) (muscle cell C2C12; C2C12, 10 microM) | Glucose uptake (% to control) (muscle cell C2C12; C2C12, 100 microM) | Glucose uptake (% to control) (muscle cell C2C12; C2C12, 600 microM) | AMPK activation (% to control) 3T3-L1 (AMPK [1]; 1 microM) | AMPK activation (% to control) 3T3-L1 (AMPK [1]; 10 microM) | AMPK activation (% to control) 3T3-L1 (AMPK [1]; 100 microM) | AMPK activation (% to control) 3T3-L1 (AMPK [1]; 200 microM) | AMPK activation (% to control) Hep G2 (AMPK [2]; 1 microM) | AMPK activation (% to control) Hep G2 (AMPK [2]; 10 microM) | AMPK activation (% to control) Hep G2 (AMPK [2]; 100 microM) | AMPK activation (% to control) Hep G2 (AMPK [2]; 200 microM) | AMPK activation (% to control) C2C12 (AMPK [3]; 1 microM) | AMPK activation (% to control) C2C12 (AMPK [3]; 10 microM) | AMPK activation (% to control) C2C12 (AMPK [3]; 100 microM) | AMPK activation (% to control) C2C12 (AMPK [3]; 200 microM) | Glucose uptake (% to control) (muscle cell C2C12; C2C12, 1200 microM) | AMPK activation (% to control) 3T3-L1 (AMPK [1]; 1200 microM) | AMPK activation (% to control) Hep G2 (AMPK [2]; 1200 microM) | AMPK activation (% to control) C2C12 (AMPK [3]; 1200 microM) |
| --- | --- | --- | --- | --- | --- | --- | --- | --- | --- | --- | --- | --- | --- | --- | --- | --- | --- | --- | --- | --- |
| Oc1nc(NC2CCCCC2)nc2nc[nH]c12 [2-cyclohexylamino-6-hydroxypurine] | 108 ± 2.1 % to control | 195 ± 11.9 % to control | 251 ± 16.2 % to control | 311 ± 10.7 % to control | 118 % to control | 172 % to control | 283 % to control | 375 % to control | 111 % to control | 137 % to control | 248 % to control | 351 % to control | 108 % to control | 118 % to control | 209 % to control | 321 % to control | – | – | – | – |
| Cc1ccc(CNc2ncnc3nc[nH]c23)cc1 [6-(4-methylbenzylamino)purine] | 114 ± 9.2 % to control | 205 ± 14.6 % to control | 281 ± 11.5 % to control | 309 ± 9.1 % to control | 110 % to control | 163 % to control | 259 % to control | 347 % to control | 106 % to control | 121 % to control | 245 % to control | 348 % to control | 112 % to control | 158 % to control | 270 % to control | 358 % to control | – | – | – | – |
| Oc1ncnc2nc[nH]c12 [6-hydroxypurine] | 109 ± 2.2 % to control | 242 ± 23.7 % to control | 289 ± 21.4 % to control | 318 ± 21.2 % to control | 118 % to control | 155 % to control | 198 % to control | 325 % to control | 114 % to control | 146 % to control | 165 % to control | 330 % to control | 120 % to control | 148 % to control | 233 % to control | 341 % to control | – | – | – | – |
| NC(=O)c1ncn([C@@H]2O[C@H](CO)[C@@H](O)[C@H]2O)c1N [AICAR, 5-amino-1-β-D-ribofuranosyl-imidazole-4-carboxamide, reference compound] | – | – | – | – | – | – | – | – | – | – | – | – | – | – | – | – | 264 ± 19.2 % to control | 340 % to control | 319 % to control | 335 % to control |
| Nc1nc2nc[nH]c2c(=O)[nH]1 [Guanine] | – | – | – | – | 107 % to control | 121 % to control | 208 % to control | 312 % to control | 119 % to control | 144 % to control | 199 % to control | 335 % to control | 105 % to control | 117 % to control | 241 % to control | 304 % to control | – | – | – | – |
| O=c1[nH]cnc2nc[nH]c12 [Hypoxanthine] | – | – | – | – | 108 % to control | 128 % to control | 231 % to control | 335 % to control | 105 % to control | 124 % to control | 225 % to control | 341 % to control | 108 % to control | 121 % to control | 238 % to control | 309 % to control | – | – | – | – |
| Cc1c[nH]c(=O)[nH]c1=O [Thymine, thymine] | 110 ± 3.2 % to control | 167 ± 15.1 % to control | 215 ± 18.2 % to control | 283 ± 22.3 % to control | 109 % to control | 129 % to control | 235 % to control | 318 % to control | 110 % to control | 113 % to control | 218 % to control | 303 % to control | 117 % to control | 147 % to control | 266 % to control | 354 % to control | – | – | – | – |
| O=c1cc[nH]c(=O)[nH]1 [Uracil] | – | – | – | – | 114 % to control | 123 % to control | 248 % to control | 372 % to control | 118 % to control | 144 % to control | 237 % to control | 359 % to control | 105 % to control | 109 % to control | 264 % to control | 358 % to control | – | – | – | – |
